Patent US9422255B2, “S-imino-S-oxo-iminothiazine compounds as BACE inhibitors, compositions, and their use” (Merck Sharp & Dohme Corp., priority 2013, dated 2016)

Columns and labels:
[1] = molecular target: soluble human BACE1 catalytic domain (Homo sapiens (Human), UniProt P56817); experiment: BACE1 HTRF FRET Assay; format: biochemical; conditions: Ki calculated from IC50 using the Cheng-Prusoff equation; QSY7-APPswe-Eu substrate, pH 5.0; read-out: BACE 1 Ki
Text: Na^+-Acetate pH 5.0; 1% Brij-35; Glycerol; Dimethyl Sulfoxide (DMSO); Recombinant human soluble BACE1 catalytic domain (>95% pure); APP Swedish mutant peptide substrate (QSY7-APP^swe-Eu): QSY7-EISEVNLDAEFC-Europium-amide.
A homogeneous time-resolved FRET assay can be used to determine IC50 values for inhibitors of the soluble human BACE1 catalytic domain. This assay monitors the increase of 620 nm fluorescence that resulted from BACE1 cleavage of an APPswedish APP^swe mutant peptide FRET substrate (QSY7-EISEVNLDAEFC-Europium-amide). This substrate contains an N-terminal QSY7 moiety that serves as a quencher of the C-terminal Europium fluorophore (620 nm Em). In the absence of enzyme activity, 620 nm fluorescence is low in the assay and increased linearly over 3 hours in the presence of uninhibited BACE1 enzyme Inhibition of BACE1 cleavage of the QSY7-APP^swe-Eu substrate by inhibitors is manifested as a suppression of 620 nm fluorescence.
Varying concentrations of inhibitors at 3× the final desired concentration in a volume of 10 ul are preincubated with purified human BACE1 catalytic domain (3 nM in 10 μl) for 30 minutes at 30° C. in reaction buffer containing 20 mM Na-Acetate pH 5.0, 10% glycerol, 0.1% Brij-35 and 7.5% DSMO. […]

[2] = molecular target: purified human autoBACE-2 (Homo sapiens, UniProt Q9Y5Z0); experiment: BACE-2 Assay (BACE-HTRF assay); format: biochemical; conditions: Ki calculated from IC50 using the Cheng-Prusoff equation; QSY7-EISEVNLDAEFC-Eu-amide substrate, pH 5.0
Experimental: Inhibitor IC50s at purified human autoBACE-2 are determined in a time-resolved endpoint proteolysis assay that measures hydrolysis of the QSY7-[…]-Eu-amide FRET peptide substrate (BACE-HTRF assay). […] DMSO is present at 5% final concentration in the assay. Following laser excitation of sample wells at 320 nm, the fluorescence signal at 620 nm is collected for 400 ms following a 50 μs delay on a RUBYstar HTRF plate reader (BMG Labtechnologies). Raw RFU data is normalized to maximum (1.0 nM BACE/DMSO) and minimum (no enzyme/DMSO) RFU values. […] The Ki values are calculated from the IC50 using the Cheng-Prusoff equation.

purified human autoBACE-2, sequence (Q9Y5Z0 63-518 limits assumed): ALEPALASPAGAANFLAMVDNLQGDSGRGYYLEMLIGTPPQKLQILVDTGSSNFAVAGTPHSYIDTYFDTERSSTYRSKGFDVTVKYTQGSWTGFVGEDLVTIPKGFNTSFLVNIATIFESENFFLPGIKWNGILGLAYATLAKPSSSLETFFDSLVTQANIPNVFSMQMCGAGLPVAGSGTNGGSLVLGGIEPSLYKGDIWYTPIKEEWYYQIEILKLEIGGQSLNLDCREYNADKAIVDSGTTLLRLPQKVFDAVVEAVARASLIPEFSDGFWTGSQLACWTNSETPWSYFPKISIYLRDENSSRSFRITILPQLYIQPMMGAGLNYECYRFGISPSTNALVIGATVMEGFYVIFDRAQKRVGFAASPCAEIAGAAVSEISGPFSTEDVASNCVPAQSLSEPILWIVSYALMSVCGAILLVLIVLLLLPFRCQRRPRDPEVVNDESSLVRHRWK
soluble human BACE1 catalytic domain, sequence (P56817 75-416): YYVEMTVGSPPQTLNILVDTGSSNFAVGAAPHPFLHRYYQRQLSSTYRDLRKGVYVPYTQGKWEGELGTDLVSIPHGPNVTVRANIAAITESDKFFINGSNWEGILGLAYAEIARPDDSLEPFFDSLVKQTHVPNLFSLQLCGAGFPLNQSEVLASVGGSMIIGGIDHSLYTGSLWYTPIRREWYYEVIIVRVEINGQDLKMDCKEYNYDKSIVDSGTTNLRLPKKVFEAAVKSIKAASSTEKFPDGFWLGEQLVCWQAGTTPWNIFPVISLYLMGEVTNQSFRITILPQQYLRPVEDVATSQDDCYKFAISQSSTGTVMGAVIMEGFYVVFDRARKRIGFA

**Q.** Which results are given for `CN=S1(=O)C[C@@](C)(c2cc(NC(=O)c3ccc(Cl)cn3)ccc2F)NC(=N)[C@@]1(C)c1ccc(F)cc1` (some centres unmarked) [Example 10a]?
**A.** Ki [1]: 290 nM; Ki [2]: 106 nM
